Several values for one entry are separate records, joined by “and”; a condition that tells them apart may be missing. Equal entries are not always repeated.
Tests used:
[1] = target: T1, human CD45-cytoplasmic domain (Homo sapiens, UniProt P08575); test: Phosphatase enzyme inhibition, CD45, fluorogenic substrate DiFMUP; format: biochemical; conditions: for inhibition of CD45 (in words): DiFMUP substrate
T1 construct: human CD45-cytoplasmic domain (Enzo Life Science); purchased Enzo Life Science
T1 sequence (P08575 599-1306 limits assumed): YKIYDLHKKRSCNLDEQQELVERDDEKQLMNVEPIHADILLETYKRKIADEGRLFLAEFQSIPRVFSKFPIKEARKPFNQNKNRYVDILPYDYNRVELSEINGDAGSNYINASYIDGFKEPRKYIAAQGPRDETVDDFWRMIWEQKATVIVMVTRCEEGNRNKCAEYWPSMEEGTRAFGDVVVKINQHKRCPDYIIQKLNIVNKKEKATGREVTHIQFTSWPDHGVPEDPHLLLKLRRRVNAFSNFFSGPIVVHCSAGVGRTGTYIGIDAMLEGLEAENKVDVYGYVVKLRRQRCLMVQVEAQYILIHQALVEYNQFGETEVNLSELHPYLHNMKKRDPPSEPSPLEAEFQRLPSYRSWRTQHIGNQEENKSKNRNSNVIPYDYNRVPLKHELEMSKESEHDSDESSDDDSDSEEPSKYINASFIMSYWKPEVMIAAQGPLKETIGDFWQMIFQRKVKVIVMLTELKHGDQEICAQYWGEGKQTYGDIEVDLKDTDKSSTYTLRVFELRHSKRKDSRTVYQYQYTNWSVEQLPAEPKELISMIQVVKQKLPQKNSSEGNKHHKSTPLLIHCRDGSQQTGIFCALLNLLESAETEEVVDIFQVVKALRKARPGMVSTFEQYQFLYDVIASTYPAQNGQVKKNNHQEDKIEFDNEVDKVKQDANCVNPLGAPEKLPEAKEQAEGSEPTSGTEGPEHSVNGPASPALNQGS
Procedure: Enzyme assays were conducted using human CD45-cytoplasmic domain (Enzo Life Science; diluted to 4 mU/μL in 50 mM HEPES, pH 7.2, 1 mM EDTA, and 0.1% nonidet P-40) (FIG. 6-8), or bovine alkaline phosphatase (New England Bio Labs; diluted to 4 mU/μL in 100 mM NaCl, 50 mM tris-HCl, 10 mM MgCl2 1 mM dithiothreitol, pH 7.9) (FIG. 2-5). Enzyme activity was detected with a fluorogenic substrate (6,8-difluoro-4-methylumbelliferyl phosphate; DiFMUP) (Invitrogen). Assays were performed in black 96-well plates and read in a Spectra Max M2 plate reader (Molecular Devices). For CD45 assays, substrate concentration was between 1 μM to 50 μM, for alkaline phosphatase substrate concentration was between 10 nM to 10 μM. Stock solutions of inhibitors (100 mM of compound 7 in deionized water; and 10 mM of compound 17 in 50% deionized water and 50% DMSO) were prepared and stored at −20° C. Final solutions in microplate wells contained a total volume of 100 μL consisting of 2 μL of diluted enzyme, inhibitor, and DiFMUP substrate diluted to 100 μL in the appropriate buffer. All wells were incubated for 10 min at 37° C. in the plate reader prior to the addition of DiFMUP. After incubation, substrate was added and the plate was read at an excitation maximum of 358 nm and an emission maximum of 450 nm every 30 seconds for 125 min (CD45) or 65 min (alkaline phosphatase).
The Km for DiFMUP with each enzyme was first determined, and the experiment was then repeated in the presence of the inhibitor at a concentration close to an initially estimated K, (TABLE 1). […] Previous reports of PTP inhibition using BBP analogs observed irreversible inhibition of the enzyme.(22) Evaluation of the kinetic data described above using reciprocal plots (FIG. 9-12) was not consistent with pure competitive inhibition of CD45, but this analysis is not conclusive on its own.
(§1) The Kitz-Wilson analysis estimated the rate of irreversible inhibition (k3) of CD45 at 0.05 min^−1 for both compounds. To provide additional support for the expected mechanism of inhibition, we measured CD45 activity for an enzyme sample which was pre-incubated with the inhibitor and compared it to an enzyme sample that was only incubated with the inhibitor for a short period.

CD45 = target: T2, CD45 (Homo sapiens, UniProt P08575); test: Time-dependent inhibition of CD45 (pre-incubation with inhibitor); format: biochemical; conditions: compound at 25 μM, enzyme incubated 13 h (FIG. 13)
T2 construct: Enzyme assays were conducted using human CD45-cytoplasmic domain (Enzo Life Science); purchased Enzo Life Science
T2 sequence (P08575 599-1306 limits assumed): T1 sequence (P08575 599-1306 limits assumed)
Procedure: FIG. 13 is a plot of time-dependent inhibition of CD45 enzyme activity in the presence of compound 1 at a concentration of 25 μM. The enzyme was incubated for 13 h, either alone or in the presence of compound 1.
Time-Dependent Inhibition of CD45 by Compound 1
as §1

Row | Molecule | inhibition of CD45 (in words) [1] | KI ([1]; Kitz-Wilson analysis) | Ki ([1]; Kitz-Wilson analysis) | k3, rate of enzyme inactivation ([1]; Kitz-Wilson analysis) | potency relative to BrPmp alone ([1]; from Kitz-Wilson KI values (Example 8)) | potency relative to BrPmp alone ([1]; initial kinetic data (Example 7)) | CD45 activity after pre-incubation with inhibitor (CD45)
1 | O=P(O)(O)C(Br)c1ccccc1 (centres unmarked) [compound 7, [bromo(phenyl)methyl]phosphonic acid, reference compound] | failure to alter the rate of reaction | did not give a saturating curve |  |  |  |  | 
2 | CC(C)C[C@H](NC(=O)[C@H](Cc1ccc(C(Br)P(=O)(O)O)cc1)NC(=O)[C@@H](N)CC(=O)O)C(=O)O (some centres unmarked) [compound 17, Asp-BrPmp-Leu] | significant inhibition of the enzyme at low micromolar concentrations |  | 16 ± 4 µM | 0.05 min⁻¹ and 0.048 ± 0.003 min⁻¹ | approximately 4 fold | approximately 7 fold | 
3 | L-BrPmp-OH [compound 1] |  |  |  |  |  |  | at long incubation times completely inactivated the enzyme

Source: patent US9399653B2, “Methods and systems for preparing irreversible inhibitors of protein tyrosine phosphatases” (The Governors of the University of Alberta, priority 2010, dated 2016)
